The test system of one series is HT-29. Description: Cytotoxicity against human HT-29 cells. The settings on record: read-out: ED50 (the source's name). Type of series: functional.
Another series has as its system A549. Description: Cytotoxicity against human A549 cells. Type of series: functional. The settings on record: read-out: ED50 (the source's name).
The test system of a further series is MCF7. Description: Cytotoxicity against human MCF7 cells. Type of series: functional. Particulars: read-out: ED50 (the source's name).
The subject of the next series is Artemia. Description: Toxicity in brine shrimp. The format is organism-based. Particulars: in vivo.

Some results are limits rather than exact numbers.

Regarding `CCCCCCCCCCCCCCCC(=O)O[C@H]1CC[C@]2(C)[C@H]3CC=C4[C@@H]5CC(C)(C)CC[C@]5(CO)[C@@H](O)C[C@@]4(C)[C@]3(C)CC[C@H]2C1(C)C`, the EC50 in the series on HT-29, with A549 and in the series on MCF7 was over 10 µg/mL in each case. In addition, the LC50 with Artemia is recorded as over 1000 ppm.
